The source of these data is ChEMBL document CHEMBL1201862, “PubChem BioAssay data set” (2004).

Some test systems named below: 786-0; DU-145; HCC 2998; HT-29; Hs-578T; K562; LOX IMVI; MDA-MB-231; MDA-MB-435; MOLT-4; NCI-H460; PC-3; RPMI-8226; RXF 393; SF-295; SK-MEL-28; SNB-19; SNB-75; SR; U-251.
Experiment in all cases: NCI tumour cell line growth inhibition, 48 h

Molecules are shown by their SMILES.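 Protocol summary: plate cells (96-well), add compound at 5 concentrations, incubate 48 h, interpolate endpoints linearly. Here, GI50 denotes the concentration required for 50% inhibition of growth.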 The source made the active and inactive calls. Rule as the data show it: active = GI50 up to about 1.1 µM and inactive = higher.

For the compound `O=S(=O)(CC#CCS(=O)(=O)c1ccccc1)c1ccccc1`, the GI50 with 786-0 is 0.973 µM (active); with DU-145, 4.91 µM (inactive); in the assay with HCC 2998, 18.7 µM (inactive); in the assay with HT-29, 6.68 µM (inactive); in the assay with Hs-578T, 5.14 µM (inactive); in the assay on K562, 1.58 µM (inactive). Also, the GI50 is 1.51 µM (inactive) in the assay on LOX IMVI; 11.6 µM (inactive) with MDA-MB-231; 1.72 µM (inactive) in the assay on MDA-MB-435; 0.959 µM (active) with MOLT-4; 12.6 µM (inactive) in the assay on NCI-H460; 7.45 µM (inactive) with PC-3. For the same compound, the GI50 in the assay on RPMI-8226 is 1.23 µM (inactive); in the assay with RXF 393, 1.67 µM (inactive); with SF-295, 18.5 µM (inactive); in the assay on SK-MEL-28, 7.46 µM (inactive); in the assay on SNB-19 it was 16.3 µM (inactive); with SNB-75 it was 1.48 µM (inactive). Further, the GI50 is 2.66 µM (inactive) in the assay with SR and 8.55 µM (inactive) with U-251.
For the compound `NC1C/C(=N\O)c2c(I)sc(I)c21` (stereo not given), the GI50 with 786-0 was 16 µM (inactive); in the assay on DU-145, 17.4 µM (inactive); in the assay with HCC 2998 it was 20.1 µM (inactive); in the assay on HT-29 it was 19.2 µM (inactive); in the assay on Hs-578T, 19.8 µM (inactive); in the assay with K562 it was 8.04 µM (inactive). For the same compound, the GI50 is 1.77 µM (inactive) with LOX IMVI; 21.3 µM (inactive) in the assay on MDA-MB-231; 13.8 µM (inactive) in the assay on MDA-MB-435; 3.05 µM (inactive) with MOLT-4; 21.3 µM (inactive) in the assay with NCI-H460; 17.1 µM (inactive) in the assay with PC-3. The GI50 with RPMI-8226 is 6.7 µM (inactive); in the assay with RXF 393 it was 21.3 µM (inactive); in the assay on SF-295, 17.2 µM (inactive); with SK-MEL-28 it was 17.5 µM (inactive); with SNB-19, 17.2 µM (inactive); in the assay on SNB-75 it was 18.9 µM (inactive). In addition, the GI50 in the assay with SR was 4.8 µM (inactive); with U-251 it was 18.3 µM (inactive).
Consider `C(=C\c1ccccc1)/COc1ccccc1C(N1CCOCC1)n1nc2ccccc2n1` (stereo not given), for which the GI50 was 3.29 µM (inactive) in the assay with 786-0; 5.85 µM (inactive) with DU-145; 17.5 µM (inactive) with HCC 2998; 3 µM (inactive) in the assay with HT-29; 7.24 µM (inactive) in the assay with Hs-578T; 1.19 µM (inactive) in the assay with K562. Further, the GI50 is 2.9 µM (inactive) in the assay with LOX IMVI; 4.73 µM (inactive) with MDA-MB-231; 0.365 µM (active) with MDA-MB-435; 2.3 µM (inactive) in the assay on MOLT-4; 15.4 µM (inactive) in the assay on NCI-H460; 2.59 µM (inactive) in the assay with PC-3. Also, the GI50 in the assay with RPMI-8226 is 2.92 µM (inactive); in the assay on RXF 393, 3.94 µM (inactive); in the assay with SF-295, 8.95 µM (inactive); with SK-MEL-28, 10.7 µM (inactive); in the assay on SNB-19, 19.2 µM (inactive); with SNB-75 it was 4.8 µM (inactive). The results for the GI50 in the assay with SR and in the assay on U-251 were 1.07 µM (active) and 3.08 µM (inactive), respectively.
As to `COc1cc2c(c(OC)c1OC)-c1ccc(SC)c(=O)cc1[C@@H](O)CC2`, the GI50 is 0.000834 µM (active) with 786-0; 0.000665 µM (active) in the assay on DU-145; 0.00122 µM (active) in the assay with HCC 2998; 0.000294 µM (active) with HT-29; 0.000261 µM (active) in the assay with Hs-578T; 0.00948 µM (active) in the assay on K562. Moreover, the GI50 in the assay on LOX IMVI is 0.00078 µM (active); in the assay on MDA-MB-231, 0.00115 µM (active); with MDA-MB-435 it was 0.000122 µM (active); with MOLT-4 it was 0.00108 µM (active); in the assay on NCI-H460, 0.000586 µM (active); in the assay on PC-3 it was 0.000353 µM (active). For the same compound, the GI50 with RXF 393 was 0.000317 µM (active); with SF-295, 0.000225 µM (active); in the assay with SK-MEL-28 it was 0.0222 µM (active); in the assay with SNB-19, 0.00104 µM (active); in the assay with SNB-75, 0.01 µM (active); in the assay with SR, 0.00258 µM (active). For the same compound, in the assay on U-251, the GI50 was 0.000378 µM (active).
Take `COc1ccc(P2(=S)SP(=S)(c3ccc(Cl)cc3)S2)cc1` (stereo not given): the GI50 in the assay with 786-0, in the assay with DU-145, in the assay with HCC 2998, in the assay with HT-29, in the assay with Hs-578T and with LOX IMVI was > 100 µM (inactive) in each case. In addition, the GI50 in the assay on MDA-MB-231, in the assay with MDA-MB-435, with MOLT-4, in the assay with NCI-H460, with PC-3 and in the assay on RPMI-8226 was > 100 µM (inactive) in each case. The GI50 in the assay on RXF 393, in the assay on SF-295, with SK-MEL-28, in the assay on SNB-19, in the assay with SNB-75 and in the assay on SR was > 100 µM (inactive) in each case. The GI50 with U-251 is > 100 µM (inactive).
On to `C/C(=N\NC(=S)NC(C)(C)C)c1ccccn1`, for which the GI50 is < 0.0406 µM (active) in the assay with 786-0; 1.69 µM (inactive) with DU-145; 0.235 µM (active) in the assay on HCC 2998; 1.12 µM (inactive) with Hs-578T; < 0.01 µM (active) in the assay on K562; < 0.01 µM (active) in the assay on LOX IMVI. The GI50 in the assay with MDA-MB-231 was < 0.0378 µM (active); in the assay on MDA-MB-435, 1.52 µM (inactive); in the assay on MOLT-4, < 0.01 µM (active); with PC-3, < 0.01 µM (active); with RPMI-8226 it was < 0.01 µM (active); in the assay on RXF 393, < 0.01 µM (active). The GI50 in the assay on SF-295 is 0.589 µM (active); in the assay with SK-MEL-28 it was 3.66 µM (inactive); in the assay with SNB-19, 4.5 µM (inactive); in the assay with SNB-75 it was 11.7 µM (inactive); in the assay on SR, < 0.01 µM (active); with U-251 it was 0.0252 µM (active).
In the case of `NC(=O)[N+](=CC(=S)Nc1ccccc1Cl)C(N)=O`, the GI50 in the assay on 786-0, in the assay on DU-145, in the assay on HCC 2998, with HT-29, with Hs-578T and with K562 was > 100 µM (inactive) each time. In addition, the GI50 with LOX IMVI, with MDA-MB-231, with MDA-MB-435, in the assay with MOLT-4, in the assay on NCI-H460 and in the assay on PC-3 was > 100 µM (inactive) in each case. In addition, the GI50 is > 100 µM (inactive) in the assay with RPMI-8226; > 100 µM (inactive) in the assay on RXF 393; > 100 µM (inactive) in the assay on SF-295; 71.4 µM (inactive) in the assay with SNB-19; 28.7 µM (inactive) in the assay with SR; > 100 µM (inactive) in the assay with U-251.
`CSc1c(C#N)c(O)n(-c2ccc(Cl)cc2)c(=O)c1C(C)=O`: the GI50 is 37.7 µM (inactive) with 786-0; 70.6 µM (inactive) in the assay with DU-145; > 100 µM (inactive) in the assay on HCC 2998; 34.8 µM (inactive) with HT-29; > 100 µM (inactive) with Hs-578T; 25.5 µM (inactive) in the assay on K562. Moreover, the GI50 in the assay on LOX IMVI was 34.4 µM (inactive); in the assay with MDA-MB-231, 88.3 µM (inactive); with MDA-MB-435, 88.3 µM (inactive); in the assay on MOLT-4, 23 µM (inactive); in the assay on NCI-H460, > 100 µM (inactive); in the assay with PC-3 it was > 100 µM (inactive). Further, the GI50 with RPMI-8226 is 26 µM (inactive); in the assay with RXF 393 it was 33.6 µM (inactive); in the assay on SK-MEL-28, > 100 µM (inactive); with SNB-19, 88.5 µM (inactive); in the assay on SNB-75 it was 94.8 µM (inactive); with SR, 30.5 µM (inactive). Moreover, the GI50 in the assay with U-251 is > 100 µM (inactive).
Take `Fc1ccc2nc3n(c2c1)C(c1c(F)cccc1F)SC3` (stereo not given): the GI50 in the assay with 786-0 was > 100 µM (inactive); in the assay on DU-145, > 100 µM (inactive); with HCC 2998 it was > 100 µM (inactive); in the assay with HT-29, 33.3 µM (inactive); in the assay on Hs-578T, > 100 µM (inactive); in the assay with LOX IMVI, 50.7 µM (inactive). Moreover, the GI50 was 72.6 µM (inactive) with MDA-MB-231; 40.5 µM (inactive) with MDA-MB-435; 21.3 µM (inactive) with MOLT-4; 44 µM (inactive) in the assay with NCI-H460; 40.7 µM (inactive) in the assay on PC-3; 60.4 µM (inactive) in the assay with RPMI-8226. Also, the GI50 in the assay on RXF 393 is 53.7 µM (inactive); with SF-295, 46 µM (inactive); in the assay on SK-MEL-28, > 100 µM (inactive); with SNB-19, > 100 µM (inactive); with SNB-75 it was 31.6 µM (inactive); in the assay on SR it was 18.4 µM (inactive). In addition, in the assay with U-251, the GI50 was 76.4 µM (inactive).
With `C/C=C/C(O)P1(=O)N(Cc2ccccc2)[C@@H]2CCCC[C@H]2N1Cc1ccccc1` (stereo not given in full), the GI50 in the assay with 786-0, with DU-145, with HCC 2998, in the assay on HT-29, in the assay on Hs-578T and in the assay with K562 was > 25 µM (inactive) throughout. In addition, the GI50 was > 25 µM (inactive) with LOX IMVI; > 25 µM (inactive) with MDA-MB-231; > 25 µM (inactive) with MDA-MB-435; 19.9 µM (inactive) in the assay with MOLT-4; > 25 µM (inactive) in the assay with NCI-H460; > 25 µM (inactive) in the assay with PC-3. Also, the GI50 with RXF 393, with SF-295, in the assay with SK-MEL-28, with SNB-19, in the assay with SNB-75 and in the assay on SR was > 25 µM (inactive) throughout. Besides, in the assay with U-251, the GI50 was > 25 µM (inactive).
Regarding `CCOC(=O)/C(=N\OC)C(O)C(F)(F)F` (stereo not given), the GI50 in the assay with 786-0, in the assay with DU-145, with HCC 2998, with HT-29, in the assay with Hs-578T and in the assay on K562 was > 100 µM (inactive) in each case. Further, the GI50 with LOX IMVI, in the assay on MDA-MB-231, in the assay with MDA-MB-435, in the assay with MOLT-4, in the assay on PC-3 and with RPMI-8226 was > 100 µM (inactive) throughout. The GI50 with RXF 393, in the assay on SF-295, with SK-MEL-28, in the assay on SNB-19, with SNB-75 and with SR was > 100 µM (inactive) in each case. Moreover, the GI50 in the assay on U-251 was > 100 µM (inactive).
